Common to all, as to assay type: biochemical
One assay deals with T1, PI3K alfa (Homo sapiens, UniProt P42336).
T1 construct: for the p110-a subunit (with a deletion of the first 20 amino acids); His tag (C); made in house; host or cells: baculovirus; Tn5 (Trichoplusia ni) or TiniPro insect cells
Kind of assay: PI3 kinase assay (Kinase-Glo luminescence), PI3K alfa. Particulars: Enzymatic Data; read-out: PI3K alfa IC50 [umol]. The method in brief: (§1)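 Recombinant PI3K constructs (alfa 10 nM, delta 10 nM, gamma 150 nM) with 1 μM ATP and 10 μg/mL phosphatidylinositol in Tris pH 7.5, MgCl2, NaCl, CHAPS, DTT; 60 min (alfa, delta) or 120 min (gamma) at room temperature. ATP depletion read by Kinase-Glo luminescence; IC50 from 4-parameter logistic fit over 8 concentrations.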
For orientation: Kinase-Glo measures the ATP left after a reaction by luminescence.

The target in the next assay is T2, PI3K beta (Homo sapiens, UniProt P42338).
T2 construct: for the full-length p110-b subunit are generated and fused by overlapping PCR; His tag (C); made in house; host or cells: baculovirus; Tn5 (Trichoplusia ni) or TiniPro insect cells
T2 sequence (P42338 with tags, fused parts or gaps limits assumed): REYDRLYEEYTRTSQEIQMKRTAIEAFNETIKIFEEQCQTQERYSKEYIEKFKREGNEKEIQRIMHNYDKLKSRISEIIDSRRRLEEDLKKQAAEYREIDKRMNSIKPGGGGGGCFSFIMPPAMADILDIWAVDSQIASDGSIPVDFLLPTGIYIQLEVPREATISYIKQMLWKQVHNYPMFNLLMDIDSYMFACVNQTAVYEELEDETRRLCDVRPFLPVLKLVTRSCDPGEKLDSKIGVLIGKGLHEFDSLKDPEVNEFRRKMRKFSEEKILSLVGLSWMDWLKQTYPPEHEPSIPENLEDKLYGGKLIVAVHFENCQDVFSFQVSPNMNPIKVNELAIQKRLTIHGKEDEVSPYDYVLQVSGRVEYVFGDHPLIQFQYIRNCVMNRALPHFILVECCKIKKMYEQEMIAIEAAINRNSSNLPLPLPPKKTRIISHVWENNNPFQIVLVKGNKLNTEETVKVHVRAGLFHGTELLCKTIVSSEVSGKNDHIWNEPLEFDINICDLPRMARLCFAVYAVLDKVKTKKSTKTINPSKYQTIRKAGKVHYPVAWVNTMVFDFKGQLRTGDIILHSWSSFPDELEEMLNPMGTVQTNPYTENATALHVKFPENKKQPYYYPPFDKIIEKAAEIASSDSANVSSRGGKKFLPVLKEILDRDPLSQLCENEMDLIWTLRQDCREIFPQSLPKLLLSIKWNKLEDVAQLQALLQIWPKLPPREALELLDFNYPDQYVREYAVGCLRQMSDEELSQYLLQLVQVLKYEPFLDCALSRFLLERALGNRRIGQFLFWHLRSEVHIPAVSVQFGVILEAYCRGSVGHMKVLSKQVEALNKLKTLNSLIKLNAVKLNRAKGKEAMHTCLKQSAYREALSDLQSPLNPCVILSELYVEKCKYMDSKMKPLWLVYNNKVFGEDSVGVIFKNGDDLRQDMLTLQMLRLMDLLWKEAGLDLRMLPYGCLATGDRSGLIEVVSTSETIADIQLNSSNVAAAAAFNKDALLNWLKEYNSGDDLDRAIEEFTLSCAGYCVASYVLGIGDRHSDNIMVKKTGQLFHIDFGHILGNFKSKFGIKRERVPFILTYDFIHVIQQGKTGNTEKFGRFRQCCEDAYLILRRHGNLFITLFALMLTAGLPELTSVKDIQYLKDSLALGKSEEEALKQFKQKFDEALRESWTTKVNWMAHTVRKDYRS
Kind of assay: PI3 kinase assay (Kinase-Glo luminescence), PI3K beta. Particulars: Enzymatic Data; read-out: PI3K beta IC50 [umol]. The method in brief:
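PI3Kβ (25 nM, BV-949) with 10 μg/mL phosphatidylinositol in Tris pH 7.5/MgCl2/NaCl/CHAPS/DTT buffer; reaction started with 1 μM ATP, 60 min at room temperature. ATP depletion read by Kinase-Glo luminescence; 8-point dilutions, IC50 by four-parameter logistic fit.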

The next assay deals with T3, PI3K delta (Homo sapiens, UniProt O00329).
T3 construct: for the full-length p110-d subunit are generated and fused by overlapping PCR; His tag (C); made in house; host or cells: baculovirus; Tn5 (Trichoplusia ni) or TiniPro insect cells
T3 sequence (O00329 with tags, fused parts or gaps limits assumed): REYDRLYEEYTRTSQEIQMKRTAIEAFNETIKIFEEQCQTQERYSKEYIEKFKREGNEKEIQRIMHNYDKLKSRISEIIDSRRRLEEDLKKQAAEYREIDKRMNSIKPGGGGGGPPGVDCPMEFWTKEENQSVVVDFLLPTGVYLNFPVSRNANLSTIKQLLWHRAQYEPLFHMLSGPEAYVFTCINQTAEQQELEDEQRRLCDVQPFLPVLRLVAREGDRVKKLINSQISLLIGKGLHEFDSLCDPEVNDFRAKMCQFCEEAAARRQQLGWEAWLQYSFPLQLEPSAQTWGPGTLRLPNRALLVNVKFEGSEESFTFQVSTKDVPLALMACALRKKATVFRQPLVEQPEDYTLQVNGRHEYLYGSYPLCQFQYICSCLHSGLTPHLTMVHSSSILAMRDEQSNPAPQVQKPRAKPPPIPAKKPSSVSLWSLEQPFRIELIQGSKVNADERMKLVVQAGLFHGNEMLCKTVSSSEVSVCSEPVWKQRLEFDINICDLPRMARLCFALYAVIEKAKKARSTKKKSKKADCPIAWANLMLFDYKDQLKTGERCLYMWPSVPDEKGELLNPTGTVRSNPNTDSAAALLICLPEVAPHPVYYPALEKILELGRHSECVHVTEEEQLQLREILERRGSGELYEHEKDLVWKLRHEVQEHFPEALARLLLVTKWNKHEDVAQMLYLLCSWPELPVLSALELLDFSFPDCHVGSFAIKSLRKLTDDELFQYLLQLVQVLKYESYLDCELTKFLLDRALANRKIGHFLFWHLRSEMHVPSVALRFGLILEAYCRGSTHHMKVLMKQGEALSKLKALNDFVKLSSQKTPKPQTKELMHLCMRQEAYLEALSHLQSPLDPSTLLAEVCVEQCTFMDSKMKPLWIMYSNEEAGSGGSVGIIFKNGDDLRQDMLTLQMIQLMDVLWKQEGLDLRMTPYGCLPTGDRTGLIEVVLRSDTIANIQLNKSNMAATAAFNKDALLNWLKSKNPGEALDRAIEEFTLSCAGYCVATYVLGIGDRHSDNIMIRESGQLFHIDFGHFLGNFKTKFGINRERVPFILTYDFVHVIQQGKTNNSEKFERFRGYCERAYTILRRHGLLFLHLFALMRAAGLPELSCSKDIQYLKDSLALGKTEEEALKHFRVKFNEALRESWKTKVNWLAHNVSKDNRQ
Kind of assay: PI3 kinase assay (Kinase-Glo luminescence), PI3K delta. The following applies: Enzymatic Data; read-out: PI3K delta IC50 [umol]. The method in brief: as §1

Another assay deals with T4, PI3K gamma (Homo sapiens, UniProt P48736).
T4 construct: PI3Kγ BV-950 p110g(D144aa)-C-Term His Tag; His tag (C); made in house; host or cells: construct from the Roger Williams lab (MRC LMB) in pVL1393; baculovirus; Tn5 (Trichoplusia ni) or TiniPro insect cells
T4 sequence (P48736 144-1102 limits assumed): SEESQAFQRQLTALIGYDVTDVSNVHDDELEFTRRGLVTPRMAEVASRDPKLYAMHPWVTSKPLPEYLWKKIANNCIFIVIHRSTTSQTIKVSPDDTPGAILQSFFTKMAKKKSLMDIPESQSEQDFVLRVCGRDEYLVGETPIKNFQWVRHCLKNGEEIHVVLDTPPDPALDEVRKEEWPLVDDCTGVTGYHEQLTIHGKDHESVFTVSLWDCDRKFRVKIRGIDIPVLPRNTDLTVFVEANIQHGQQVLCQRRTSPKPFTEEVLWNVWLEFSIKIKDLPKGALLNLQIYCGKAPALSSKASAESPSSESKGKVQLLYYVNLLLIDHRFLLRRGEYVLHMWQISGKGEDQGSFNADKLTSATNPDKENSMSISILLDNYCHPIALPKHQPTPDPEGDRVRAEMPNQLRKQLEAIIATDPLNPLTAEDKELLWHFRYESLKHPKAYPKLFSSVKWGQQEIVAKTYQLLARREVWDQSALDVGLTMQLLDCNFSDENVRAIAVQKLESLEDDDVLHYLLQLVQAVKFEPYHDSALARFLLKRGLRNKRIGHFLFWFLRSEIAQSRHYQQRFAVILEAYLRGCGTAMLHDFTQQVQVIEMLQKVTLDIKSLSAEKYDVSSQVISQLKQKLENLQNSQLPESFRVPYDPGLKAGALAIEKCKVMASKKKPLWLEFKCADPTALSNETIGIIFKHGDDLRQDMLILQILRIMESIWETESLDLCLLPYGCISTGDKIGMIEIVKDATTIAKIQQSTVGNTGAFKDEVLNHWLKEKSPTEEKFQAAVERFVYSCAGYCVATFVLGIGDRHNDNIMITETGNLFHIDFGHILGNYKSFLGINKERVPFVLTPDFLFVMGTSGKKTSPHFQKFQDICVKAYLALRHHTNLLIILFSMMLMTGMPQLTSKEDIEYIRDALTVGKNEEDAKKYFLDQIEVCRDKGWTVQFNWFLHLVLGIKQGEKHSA
Kind of assay: PI3 kinase assay (Kinase-Glo luminescence), PI3K gamma. Particulars: Enzymatic Data; read-out: PI3K gamma IC50 [umol]. The gist of the method:
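Kinase-Glo luminescence assay with 1 μM ATP and 10 μg/mL phosphatidylinositol (final), reaction started by ATP addition. IC50 from 4-parameter logistic fit of percent inhibition at 8 compound concentrations (usually 10 down to 0.003 […]).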

Where only a bound is given, the exact number is not on record here.

The record followed here is patent publication US20100311729A1, “Substituted imidazopyridazines and pyrrolopyrimidines as lipid kinase inhibitors” (priority 2007, published 2010).

T1 sequence (P42336 with tags, fused parts or gaps limits assumed): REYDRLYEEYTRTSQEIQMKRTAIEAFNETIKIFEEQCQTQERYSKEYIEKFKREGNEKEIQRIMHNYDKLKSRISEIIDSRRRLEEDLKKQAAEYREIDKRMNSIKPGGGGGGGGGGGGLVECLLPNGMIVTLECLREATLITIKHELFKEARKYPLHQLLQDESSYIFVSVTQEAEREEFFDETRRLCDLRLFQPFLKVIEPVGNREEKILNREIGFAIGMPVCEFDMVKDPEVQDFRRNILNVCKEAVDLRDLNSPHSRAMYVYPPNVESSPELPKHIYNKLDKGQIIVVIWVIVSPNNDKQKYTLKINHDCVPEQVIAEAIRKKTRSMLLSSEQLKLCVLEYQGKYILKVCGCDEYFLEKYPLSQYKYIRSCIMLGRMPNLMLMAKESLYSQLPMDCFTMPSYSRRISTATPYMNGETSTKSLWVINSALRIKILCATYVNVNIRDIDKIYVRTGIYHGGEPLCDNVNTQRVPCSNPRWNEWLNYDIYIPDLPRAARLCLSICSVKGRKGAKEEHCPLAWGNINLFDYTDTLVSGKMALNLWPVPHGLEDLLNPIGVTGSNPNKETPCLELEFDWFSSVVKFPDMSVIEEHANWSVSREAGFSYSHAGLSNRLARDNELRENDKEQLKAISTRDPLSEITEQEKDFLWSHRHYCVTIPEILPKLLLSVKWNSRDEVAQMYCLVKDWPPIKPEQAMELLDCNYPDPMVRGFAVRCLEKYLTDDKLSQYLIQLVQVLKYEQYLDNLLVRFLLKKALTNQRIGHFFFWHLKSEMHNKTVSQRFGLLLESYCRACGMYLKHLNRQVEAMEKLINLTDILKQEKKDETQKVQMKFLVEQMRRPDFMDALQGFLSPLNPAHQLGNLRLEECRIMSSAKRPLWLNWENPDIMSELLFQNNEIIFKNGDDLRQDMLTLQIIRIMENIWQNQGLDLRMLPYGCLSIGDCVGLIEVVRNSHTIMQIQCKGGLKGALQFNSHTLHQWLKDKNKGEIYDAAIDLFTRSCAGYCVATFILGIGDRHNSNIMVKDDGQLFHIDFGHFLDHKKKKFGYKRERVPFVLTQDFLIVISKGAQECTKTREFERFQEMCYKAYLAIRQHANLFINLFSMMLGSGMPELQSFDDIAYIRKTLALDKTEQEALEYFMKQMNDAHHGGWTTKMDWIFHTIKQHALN

As for `Nc1ncc(-c2cnc3ccc(-c4ccc(OCCCN5CCCC5=O)c(F)c4)nn23)cc1C(F)(F)F` [Example 90, 1-(3-{4-[3-(6-Amino-5-trifluoro-methyl-pyridin-3-yl)-imidazo [1,2-b]pyridazin-6-yl]-2-fluoro-phenoxy}-propyl)-pyrrolidin-2-one], the IC50 at PI3K alfa was 1140 nM; on PI3K beta, over 9100 nM; on PI3K delta, 1110 nM; on PI3K gamma, 4690 nM.
The like results for `O=C1CCCN1CCCOc1ccc(-c2ccc3ncc(-c4cnc5[nH]ccc5c4)n3n2)cc1F` [Example 91, 1-(3-{2-Fluoro-4-[3-(1H-pyrrolo [2,3-b]pyridin-5-yl)-imidazo [1,2-b]pyridazin-6-yl]-phenoxy}-propyl)-pyrrolidin-2-one] were, in that order, 155 nM, 7620 nM, 530 nM and 6540 nM.
Taken in the same sequence, the figures for `Nc1ncc(-c2cnc3ccc(-c4ccc(OCCn5cccn5)cc4)nn23)cc1C(F)(F)F` [Example 92, 5-{6-[4-(2-Pyrazol-1-yl-ethoxy)-phenyl]-imidazo [1,2-b]pyridazin-3-yl}-3-trifluoro-methyl-pyridin-2-ylamine] were 573 nM, 4110 nM, 1240 nM and over 9100 nM.
The like results for `c1cnn(CCOc2ccc(-c3ccc4ncc(-c5cnc6[nH]ccc6c5)n4n3)cc2)c1` [Example 93, 6-[4-(2-Pyrazol-1-yl-ethoxy)-phenyl]-3-(1H-pyrrolo [2,3-b]pyridin-5-yl)-imidazo [1,2-b] pyridazine] were, in that order, 157 nM, 6930 nM, 1270 nM and 5840 nM.
For `Nc1ncc(-c2cnc3ccc(-c4ccc(OCCN5CCCC5=O)c(F)c4)nn23)cc1C(F)(F)F` [Example 94, 1-(2-{4-[3-(6-Amino-5-trifluoro-methyl-pyridin-3-yl)-imidazo [1,2-b]pyridazin-6-yl]-2-fluoro-phenoxy}-ethyl)-pyrrolidin-2-one], the IC50 at PI3K alfa was 62 nM; on PI3K beta, 441 nM; at PI3K delta, 146 nM; at PI3K gamma it was 2150 nM.
For the compound `Nc1ncc(-c2ccc3ncc(-c4ccc(C(=O)O)c(F)c4)n3n2)cc1C(F)(F)F` [Example 95, 4-[6-(6-Amino-5-trifluoro-methyl-pyridin-3-yl)-imidazo [1,2-b]pyridazin-3-yl]-2-fluoro-benzoic acid], the IC50 at PI3K alfa was 6 nM; at PI3K beta, 59 nM; on PI3K delta, 20 nM; on PI3K gamma, 928 nM.
Taken in the same sequence, the figures for `O=C1CCCN1CCOc1ccc(-c2ccc3ncc(-c4cnc5[nH]ccc5c4)n3n2)cc1F` [Example 96, 1-(2-{2-Fluoro-4-[3-(1H-pyrrolo [2,3-b]pyridin-5-yl)-imidazo [1,2-b]pyridazin-6-yl]-phenoxy)-ethyl)-pyrrolidin-2-one] were 501 nM, 4710 nM, 1090 nM and 7660 nM.
Taken in the same sequence, the figures for `Nc1ncc(-c2cnc3ccc(-c4ccc(OCCN5CCCC5=O)cc4)nn23)cc1C(F)(F)F` [Example 97, 1-(2-{4-[3-(6-Amino-5-trifluoro-methyl-pyridin-3-yl)-imidazo [1,2-b]pyridazin-6-yl]-phenoxy}-ethyl)-pyrrolidin-2-one] were 75 nM, 1550 nM, 56 nM and 1020 nM.
For the compound `O=C1CCCN1CCOc1ccc(-c2ccc3ncc(-c4cnc5[nH]ccc5c4)n3n2)cc1` [Example 98, 1-(2-{4-[3-(1H-Pyrrolo[2,3-b]pyridin-5-yl)-imidazo [1,2-b]pyridazin-6-yl]-phenoxy}-ethyl)-pyrrolidin-2-one], the IC50 at PI3K alfa was determined as 28 nM; at PI3K beta, 2940 nM; at PI3K delta, 120 nM; at PI3K gamma, 2210 nM.
With `Nc1ncc(-c2ccc3ncc(-c4ccc(C(=O)NCCN5CCOCC5)c(F)c4)n3n2)cc1C(F)(F)F` [Example 99, 4-[6-(6-Amino-5-trifluoro-methyl-pyridin-3-yl)-imidazo [1,2-b]pyridazin-3-yl]-2-fluoro-N-(2-morpholin-4-yl-ethyl)-benzamide], the IC50 was 9 nM at PI3K alfa, 82 nM at PI3K beta, 15 nM at PI3K delta and 584 nM at PI3K gamma.
The like results for `Nc1ncc(-c2ccc3ncc(-c4ccc(C(=O)NCCCN5CCOCC5)c(F)c4)n3n2)cc1C(F)(F)F` [Example 100, 4-[6-(6-Amino-5-trifluoro-methyl-pyridin-3-yl)-imidazo [1,2-b]pyridazin-3-yl]-2-fluoro-N-(3-morpholin-4-yl-propyl)-benzamide] were, in that order, 24 nM, 94 nM, 26 nM and 419 nM.
As for `Nc1ncc(-c2ccc3ncc(-c4ccc(C(=O)N5CCN(Cc6ccccn6)CC5)c(F)c4)n3n2)cc1C(F)(F)F` [Example 101, {4-[6-(6-Amino-5-trifluoro-methyl-pyridin-3-yl)-imidazo [1,2-b]pyridazin-3-yl]-2-fluoro-phenyl}-(4-pyridin-2-ylmethyl-piperazin-1-yl)-methanone], the IC50 at PI3K alfa worked out at 8 nM; on PI3K beta, 168 nM; on PI3K delta it was 30 nM; on PI3K gamma, 1170 nM.
For `Nc1ncc(-c2ccc3ncc(-c4ccc(S(=O)(=O)N5CCOCC5)cc4)n3n2)cc1C(F)(F)F` [Example 102, 5-{3-[4-(Morpholine-4-sulfonyl)-phenyl]-imidazo[1,2-b]pyridazin-6-yl}-3-trifluoromethyl-pyridin-2-ylamine], the IC50 turned out to be 43 nM at PI3K alfa, 1270 nM at PI3K beta, 17 nM on PI3K delta and 1060 nM at PI3K gamma.
Consider `COc1cc(-c2ccc3ncc(-c4cnc(N)c(C(F)(F)F)c4)n3n2)ccc1OCCN1CCCC1=O` [Example 103, 1-(2-{4-[3-(6-Amino-5-trifluoro-methyl-pyridin-3-yl)-imidazo [1,2-b]pyridazin-6-yl]-2-methoxy-phenoxy}-ethyl)-pyrrolidin-2-one], for which the IC50 on PI3K alfa turned out to be 4 nM; on PI3K beta, 134 nM; on PI3K delta, 11 nM; at PI3K gamma, 573 nM.
As for `C=CS(=O)(=O)c1ccc(-c2cnc3ccc(-c4cnc(N)c(C(F)(F)F)c4)nn23)cc1` [Example 104, 5-[3-(4-Ethene-sulfonyl-phenyl)-imidazo [1,2-b]pyridazin-6-yl]-3-trifluoro-methyl-pyridin-2-ylamine], the IC50 on PI3K alfa was 27 nM; on PI3K beta, 143 nM; on PI3K delta, 21 nM; on PI3K gamma, 1420 nM.
As for `Nc1ncc(-c2ccc3ncc(-c4ccc(S(=O)(=O)CCN5CCOCC5)cc4)n3n2)cc1C(F)(F)F` [Example 105, 5-{3-[4-(2-Morpholin-4-yl-ethane-sulfonyl)-phenyl]-imidazo [1,2-b]pyridazin-6-yl}-3-trifluoro-methyl-pyridin-2-ylamine], the IC50 at PI3K alfa was 24 nM; on PI3K beta it was 463 nM; on PI3K delta, 18 nM; on PI3K gamma, 362 nM.
The like results for `Nc1ncc(-c2ccc3ncc(-c4ccc(C(=O)N5CCN(CCN6CCOCC6)CC5)c(F)c4)n3n2)cc1C(F)(F)F` [Example 106, {4-[6-(6-Amino-5-trifluoro-methyl-pyridin-3-yl)-imidazo [1,2-b]pyridazin-3-yl]-2-fluoro-phenyl}-[4-(2-morpholin-4-yl-ethyl)-piperazin-1-yl]-methanone] were, in that order, 171 nM, over 9100 nM, 291 nM and 788 nM.
The like results for `CN(C)CCN1CCN(C(=O)c2ccc(-c3cnc4ccc(-c5cnc(N)c(C(F)(F)F)c5)nn34)cc2F)CC1` [Example 107, {4-[6-(6-Amino-5-trifluoro-methyl-pyridin-3-yl)-imidazo [1,2-b]pyridazin-3-yl]-2-fluoro-phenyl}-[4-(2-dimethyl-amino-ethyl)-piperazin-1-yl]-methanone] were, in that order, 26 nM, 497 nM, 30 nM and 827 nM.
Turning to `CCN(CC)CCNC(=O)c1ccc(-c2cnc3ccc(-c4cnc(N)c(C(F)(F)F)c4)nn23)cc1F` [Example 108, 4-[6-(6-Amino-5-trifluoro-methyl-pyridin-3-yl)-imidazo [1,2-b]pyridazin-3-yl]-N-(2-diethyl-amino-ethyl)-2-fluoro-benzamide], the IC50 on PI3K alfa is 91 nM; at PI3K beta, 575 nM; at PI3K delta, 142 nM; at PI3K gamma, 565 nM.
